{"source": "patent US20090074824A1", "about": "“STABLE NANOCAPSULE SYSTEMS FOR THE ADMINISTRATION OF ACTIVE MOLECULES” (priority 2006, published 2009)", "assay": "physchem"}
{"smiles": "CCCCC(=O)O[C@]1(C(=O)CO)[C@@H](C)C[C@H]2[C@@H]3CCC4=CC(=O)C=C[C@]4(C)[C@@]3(F)[C@@H](O)C[C@@]21C", "note": "[betamethasone valerate, Betamethasone valerate]", "values": [{"measurement": "solubility", "value": 5, "unit": "µg/mL"}]}
